Publication PMC9738107, “Targeting of the ELR+CXCL/CXCR1/2 Pathway Is a Relevant Strategy for the Treatment of Paediatric Medulloblastomas” (Cells, 2022)

Experiments:
ONS-76 cells = assay: CXCL8-induced migration in Boyden chamber; assay type: cell-based, human; conditions: ONS-76, 1 µM, 200 ng/mL CXCL8
Protocol: (§1) Figure 4 C29 reduces proliferation, migration, and invasion of naïve MB cells. (A) Proliferation of Daoy, ONS-76, HD-MB03, and D341Med wild-type cells after treatment with 1 μM C29 or the control (DMSO), n = 3. (B) Clonogenic assay on Daoy (n = 4), ONS-76 (n = 3) and HD -MB03 (n = 5) cells after treatment with control (DMSO) or C29 (1 μM or 2.5 μM). Scale = 500 μm. (C) Cell migration through the Boyden chamber of Daoy and ONS-76 cells specifically attracted by 200 ng/mL CXCL8. Results are expressed as percentage of control (DMSO) (n = 3). Scale = 1000 μm. (D) Spheroid invasion using 3D culture cell assays on Daoy (n = 4) and ONS-76 cells (n = 3) treated with control (DMSO) or C29 at a concentration of 1 μM on day 0, 1, and 2. Results are expressed as percentage of day 0, n = 4. Scale = 500 μm. Statistics were performed using Student t-test for 2 comparisons only or ANOVA test for multiple comparisons. * p < 0.05, ** p < 0.01, *** p < 0.001. […]
(§2) each month by using PlasmoTest Kit (#10L07‐MM, InvivoGen, Toulouse, France). Daoy and ONS‐76 belong to the Shh genetic subgroup, D341‐Med and HD‐MB03 to group 3. […]
(§3) (1, 2∙5, 5μM) for 48 hours. […]
(§4) Data were presented with the percentage of cell death after subtracting the percentage of untreated and unlabelled dead cells.
(§5) Migration in Boyden chambers
(§6) The cells were deprived of serum overnight. […] Cells were counted using ImageJ software (NIH). […]

Daoy cells = assay: CXCL8-induced migration in Boyden chamber; assay type: cell-based, human; conditions: 1 µM, 200 ng/mL CXCL8
Protocol: as §1, §2, §3, §4, §5, §6

Lipophilicity (log D) = assay type: physicochemical; conditions: source not stated
[1] = tested on: ERK phosphorylation in Daoy cells; assay: Immunoblotting of p-ERK/p-AKT; assay type: cell-based, human; conditions: 1 or 2.5 µM, 2 h
Protocol: (§7) Figure 5 C29 inhibits signalling pathway that stimulates in cell proliferation and survival. (A–C). Daoy (A), HD-MB03 (B), and ONS-76 (C) cells were treated with C29 (1 or 2.5 μM) for 2 h (A–C) or 24 h (C), n = 3. The expression of p- ERK and p-AKT, relative to ERK and AKT, (respectively) was used to describe the relative activation of the pathways. ARD1 and HSP90 were used as loading controls. Statistics were performed using Student t-test for two comparisons only or ANOVA test for multiple comparisons. * p < 0.05, ** p < 0.01. […]
(§8) Protein extraction and immunoblotting
(§9) Cells were cultured to sub confluency and lysed in 60 mM Tris‐Cl pH 6∙8, 2% SDS, 10% glycerol, 5% β‐mercapto‐ethanol, 0∙01% bromophenol blue).
(§10) Lysates were sonicated for 25 seconds, and protein amount was determined by the Pierce™ BCA Protein Assay Kit assay (Thermo Fisher). Sample proteins were reduced by heating at 95 °C for 5 min. 30 μg of proteins were separated on 10% SDS‐polyacrylamide gels and transferred on PVDF membranes in Tris‐Glycine buffer (25 mM Tris, 192 mM glycine, pH 8∙3) + 20% ethanol (v:v). Membranes were blocked with 3% BSA, at room tem‐ perature for 1 h, then immunoblotted overnight with primary antibodies diluted in 3% BSA, at 4 °C. The following primary antibodies were used: AKT (CST, #9272S), phospho‐ […]
(§11) ARD1 (homemade polyclonal rabbit antibody). Membranes were incubated with HRP‐ conjugated secondary antibodies anti‐rabbit IgG 1/5000e (Promega), at room temperature, for 1h30. After washing, the Advansta WesternBright Quantum HRP substrate (Diagom‐ ics, Blagnac, France) was used as detection reagent.

[2] = tested on: ERK phosphorylation in HD-MB03 cells; assay: Immunoblotting of p-ERK/p-AKT; assay type: cell-based, human; conditions: HD-MB03, 1 or 2.5 µM, 2 h
Protocol: as §7, §8, §9, §10, §11

[3] = tested on: ERK and AKT phosphorylation in ONS-76 cells; assay: Immunoblotting of p-ERK/p-AKT; assay type: cell-based, human; conditions: ONS-76, 1 or 2.5 µM, 2 h or 24 h
Protocol: as §7, §8, §9, §10, §11

- logD (Lipophilicity (log D)): ~3
Structure (SMILES): O=C(Nc1cccc(Cl)c1)Nc1nc2ccc([N+](=O)[O-])cc2s1 [C29, 1-(3-chlorophenyl)-3-(6-nitrobenzo[d]thiazol-2-yl) urea]
- CXCL8-induced migration (ONS-76 cells): blocked CXCL8-induced migration
- CXCL8-induced migration (Daoy cells): blocked CXCL8-induced migration
- ERK phosphorylation [1]: inhibited ERK phosphorylation
- ERK phosphorylation [2]: inhibited ERK phosphorylation
- AKT phosphorylation [3]: inhibited
- ERK phosphorylation [3]: inhibited
